Laboratory results from article PMC5622107, “Small molecule inhibition of cGAS reduces interferon expression in primary macrophages from autoimmune mice” (Nature Communications, 2017).
Several values for one entry are separate records, joined by “and”; a condition that tells them apart may be missing. Equal values may be shown once.

Legend:
45-bp dsDNA = assay: DNA intercalation: acridine orange displacement from dsDNA by fluorescence polarization; assay type: binding
Outline: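 Acridine orange displacement from 45-bp dsDNA in HEN buffer (10 mM HEPES pH 7.5, 1 mM EDTA, 100 mM NaCl), compounds at 30 µM final, 30 min incubation. Fluorescence polarization read in mP, buffer-corrected, G-factor 1.0; mitoxantrone 50 µM and DMSO as controls.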

cGAS/dsDNA complex = biological target: T1, cGAS/dsDNA complex (Mus musculus, UniProt Q8C6L5); assay: Isothermal titration calorimetry, compound titrated into cGAS/dsDNA complex; assay type: binding
T1 construct: full-length (for high-throughput screening) and residues 147–507 (for structural study) of cGAS; His6-SUMO (N, cleaved yes); made in house; host or cells: E. coli BL21(DE3) RIL
Description: ITC measurements were performed at 25 °C using a MicroCal auto-iTC200 calorimeter (MicroCal, LLC). Purified truncated mouse cGAS was dialyzed against 40 mM HEPES buffer (pH 7.5) and 300 mM NaCl for 24 h at 4 °C. Dialysis led to some precipitation, which were removed through centrifugation followed by collection of the supernatant. The concentration of the protein in supernatant was measured using Pierce® BCA protein assay. The protein was flash frozen in liquid N2 and stored at −80 °C. For the ITC assay, the dialyzed protein was prediluted to 20 µM in the dialysis buffer and diluted to a final concentration of 10 µM in a final buffer containing 40 mM HEPES, 1% DMSO, 150 mM NaCl, 0.01% Tween-20 and + /− dsDNA 10 µM and + /− ATP or GTP 1 mM. Then, 2 μl RU.365 100 µM, dissolved in the buffer aforementioned, were injected into 0.2 ml of protein in the chamber every 150 s. Data for raw ITC and thermodynamic curves, each from one experiment, were downloaded after analysis using Affinimeter software and plotted using GraphPad Prism (7.01). The software calculates error bars as an indication of the contribution of the raw data noise that is determined from the integral of the standard deviation of the baseline during the injection.

[1] = tested on: cGAS activity in dsDNA-stimulated RAW macrophages; assay: Cellular luciferase assay, interferon-responsive reporter in dsDNA-stimulated RAW macrophages; assay type: cell-based; conditions: Mus musculus, Macrophage, dsDNA-activated RAW cells
Description: The sequence and annealing conditions of the dsDNA used is described above. Typically, 0.4 µg or 0.6 µg of dsDNA was used to stimulate RAW-Lucia ISG-KO-TREX1/ISG-KO-cGAS or RAW-Lucia ISG cells, respectively, which equated to 90% of maximal luciferase activity observed. dsDNA stimulation of RAW macrophages and subsequent luciferase measurements were performed with or without the addition of small molecules at indicated concentrations in each figure, or with DMSO as vehicle control. For the dose curve experiments, serial dilutions of inhibitors were applied to 6.7 × 10^5 cells, plated in 24-well dishes, and co-stimulated with 0.4 µg of dsDNA. In subsequent experiments using inhibitors in RAW cells, the small molecules were used at concentrations representing the derived EC75 values, while co-stimulated with one of the following: 0.4 µg dsDNA, 50 nM 5′ppp-HP20 hairpin RNA (a kind gift from Dr Anna Pyle, Yale University; sequence located in Supplementary Table 5), 10 µM cGAMP, or 100 U ml^−1 murine recombinant Ifnb (R&D Systems). dsDNA was transfected using Lipofectamine LTX. 5′ppp-HP20 RNA was transfected using Lipofectamine 2000. Cells were harvested 24 h post-transfection, washed with PBS, and lysed in 1× Luciferase Cell Lysis Buffer (Pierce).
The minimum numbers of biological and technical replicates for the luciferase assays were two and three, respectively. Analysis of luminescence values were evaluated for outliers (one standard deviation above and below the mean) for each biological replicate, and the resulting means were used to generate graphs in GraphPad Prism (v. 7.0c); where applicable, an unpaired t-test with Welch’s correction was used to compare the results of each individual compound to dsDNA or other stimulant. The experimental variances observed within control samples (untreated or vehicle) and treated samples were similar.

RAW 264.7 = assay: Cytotoxicity, CellTiter-Glo ATP quantitation at 72 h; assay type: cell-based; conditions: for LD50: RAW macrophages, 72 h, percent viability
Description: Small-molecule compounds were serially diluted to concentrations spanning the range tested in the response curves were added to 6.7 × 10^5 RAW-Blue macrophages plated 16 h prior in 96-well dishes, then harvested 72 h after compound addition. ATP was measured using CellTiter Glo Viability Assay (Promega) using 50 µM Tamoxifen (Sigma) as a positive control for cytotoxicity. Viability values were generated using vehicle (DMSO) or the first dose (RU.521) as 100% and Tamoxifen as 0%. Outliers were removed as described previously.

[2] = cGAS in presence of dsDNA, no ATP/GTP

T1 sequence (Q8C6L5 147-507, one chain of several): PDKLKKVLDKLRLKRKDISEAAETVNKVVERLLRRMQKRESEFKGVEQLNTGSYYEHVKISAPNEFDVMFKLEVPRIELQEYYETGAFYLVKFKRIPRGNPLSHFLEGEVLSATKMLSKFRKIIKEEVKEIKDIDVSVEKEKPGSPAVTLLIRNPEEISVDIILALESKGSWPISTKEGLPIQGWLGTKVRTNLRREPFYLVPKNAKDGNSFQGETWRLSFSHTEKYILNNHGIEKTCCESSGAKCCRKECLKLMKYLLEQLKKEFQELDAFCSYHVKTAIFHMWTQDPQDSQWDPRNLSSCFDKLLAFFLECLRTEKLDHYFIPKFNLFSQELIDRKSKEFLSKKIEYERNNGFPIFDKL

## Cc1nn(-c2nc3ccccc3[nH]2)c(O)c1C1OC(=O)c2ccccc21 (centres unmarked) [RU166365]
45-bp dsDNA; Supplementary Table 2, acridine orange displacement compared to mitoxantrone
  % intercalation at 30 µM: -6.7%
45-bp dsDNA; Supplementary Table 2, compound 30 µM
  Polarization: 264 mP
cGAS/dsDNA complex; cGAS in presence of dsDNA
  T*ΔS: -4504 cal/mol
  rM: 0.9075
  ΔG: -9813 cal/mol
  ΔH: -14320 cal/mol
cGAS/dsDNA complex; [2]
  Kd: 64.1 nM and 64 nM
cGAS/dsDNA complex; cGAS/dsDNA + 1 mM ATP
  Kd: 104 nM
cGAS/dsDNA complex; cGAS/dsDNA + 1 mM GTP
  Kd: 298 nM
cGAS/dsDNA complex; cGAS/dsDNA + ATP 1 mM
  T*ΔS: -2493 cal/mol
  rM: 0.9605
  ΔG: -9524 cal/mol
  ΔH: -12020 cal/mol
cGAS/dsDNA complex; cGAS/dsDNA + GTP 1 mM
  T*ΔS: -3668 cal/mol
  rM: 0.9257
  ΔG: -8902 cal/mol
  ΔH: -12570 cal/mol
[1]
  IC50: 4980 nM
RAW 264.7
  LD50 over cellular IC50: 9 fold
RAW 264.7; listed as RU.365
  LD50: 45 µM

## Cc1nn(-c2nc3ccc(Cl)c(Cl)c3[nH]2)c(O)c1C1OC(=O)c2ccccc21 (centres unmarked) [RU320521, 3-[1-(6,7-dichloro-1H-benzimidazol-2-yl)-5-hydroxy-3-methyl-pyrazol-4-yl]-3H-isobenzofuran-1-one]
45-bp dsDNA; acridine orange competition screen
  DNA intercalation or interaction: did not show any indication that it could act in a manner that could intercalate or interact with DNA
cGAS/dsDNA complex; cGAS in presence of dsDNA
  T*ΔS: -6134 cal/mol
  rM: 0.8071
  ΔG: -10150 cal/mol
  ΔH: -16290 cal/mol
cGAS/dsDNA complex; [2]
  Kd: 36.2 nM
[1]
  IC50: 700 nM
RAW 264.7
  LD50 over cellular IC50: 88 fold
RAW 264.7; listed as RU.521
  LD50: 62 µM
